Experimental data: the NIST ThermoML archive (doi:10.1021/acs.jced.8b00326)
Numbers after ± are expanded uncertainties.

Assay: mn = molality of the nth substance listed, in mol/kg
Settings: 100 kPa, Liquid, Alternating current cell with electrodes

## CCCCCCCCCCCCCCCC[n+]1ccccc1.[Cl-] [cetylpyridinium chloride] + O
293.15 K, m1 = 0.0002
  electrical conductivity: 0.00277 ± 0.0012 S/m
293.15 K, m1 = 0.0004
  electrical conductivity: 0.00503 ± 0.0012 S/m
293.15 K, m1 = 0.0006
  electrical conductivity: 0.0073 ± 0.0012 S/m
293.15 K, m1 = 0.0008
  electrical conductivity: 0.00906 ± 0.0011 S/m
293.15 K, m1 = 0.001
  electrical conductivity: 0.0102 ± 0.001 S/m
293.15 K, m1 = 0.0012
  electrical conductivity: 0.0112 ± 0.001 S/m
293.15 K, m1 = 0.0014
  electrical conductivity: 0.012 ± 0.001 S/m
293.15 K, m1 = 0.0016
  electrical conductivity: 0.0128 ± 0.001 S/m
293.15 K, m1 = 0.0018
  electrical conductivity: 0.0138 ± 0.001 S/m
293.15 K, m1 = 0.002
  electrical conductivity: 0.0145 ± 0.001 S/m
298.15 K, m1 = 0.0002
  electrical conductivity: 0.00283 ± 0.0013 S/m
298.15 K, m1 = 0.0004
  electrical conductivity: 0.00513 ± 0.0013 S/m
298.15 K, m1 = 0.0006
  electrical conductivity: 0.00755 ± 0.0013 S/m
298.15 K, m1 = 0.0008
  electrical conductivity: 0.00982 ± 0.0011 S/m
298.15 K, m1 = 0.001
  electrical conductivity: 0.0109 ± 0.001 S/m
298.15 K, m1 = 0.0012
  electrical conductivity: 0.0118 ± 0.001 S/m
298.15 K, m1 = 0.0014
  electrical conductivity: 0.0128 ± 0.001 S/m
298.15 K, m1 = 0.0016
  electrical conductivity: 0.0139 ± 0.001 S/m
298.15 K, m1 = 0.0018
  electrical conductivity: 0.0149 ± 0.001 S/m
298.15 K, m1 = 0.002
  electrical conductivity: 0.0158 ± 0.0011 S/m
303.15 K, m1 = 0.0002
  electrical conductivity: 0.00302 ± 0.0013 S/m
303.15 K, m1 = 0.0004
  electrical conductivity: 0.00574 ± 0.0013 S/m
303.15 K, m1 = 0.0006
  electrical conductivity: 0.00831 ± 0.0013 S/m
303.15 K, m1 = 0.0008
  electrical conductivity: 0.011 ± 0.0013 S/m
303.15 K, m1 = 0.001
  electrical conductivity: 0.0134 ± 0.0012 S/m
303.15 K, m1 = 0.0012
  electrical conductivity: 0.0148 ± 0.0011 S/m
303.15 K, m1 = 0.0014
  electrical conductivity: 0.016 ± 0.0011 S/m
303.15 K, m1 = 0.0016
  electrical conductivity: 0.0172 ± 0.0011 S/m
303.15 K, m1 = 0.0018
  electrical conductivity: 0.0184 ± 0.0011 S/m
303.15 K, m1 = 0.002
  electrical conductivity: 0.0194 ± 0.001 S/m
308.15 K, m1 = 0.0002
  electrical conductivity: 0.00337 ± 0.0014 S/m
308.15 K, m1 = 0.0004
  electrical conductivity: 0.00645 ± 0.0014 S/m
308.15 K, m1 = 0.0006
  electrical conductivity: 0.00954 ± 0.0014 S/m
308.15 K, m1 = 0.0008
  electrical conductivity: 0.0126 ± 0.0014 S/m
308.15 K, m1 = 0.001
  electrical conductivity: 0.0155 ± 0.0012 S/m
308.15 K, m1 = 0.0012
  electrical conductivity: 0.017 ± 0.0011 S/m
308.15 K, m1 = 0.0014
  electrical conductivity: 0.0183 ± 0.0011 S/m
308.15 K, m1 = 0.0016
  electrical conductivity: 0.0196 ± 0.0011 S/m
308.15 K, m1 = 0.0018
  electrical conductivity: 0.021 ± 0.0011 S/m
308.15 K, m1 = 0.002
  electrical conductivity: 0.0223 ± 0.0011 S/m

## O [water] + CCCCCCCCCCCCCCCC[n+]1ccccc1.[Cl-]
293.15 K, m2 = 0
  electrical conductivity: 0.0005 S/m
298.15 K, m2 = 0
  electrical conductivity: 0.00053 S/m
303.15 K, m2 = 0
  electrical conductivity: 0.00057 S/m
308.15 K, m2 = 0
  electrical conductivity: 0.00058 S/m
